Data from patent US20170349532A1, “CATIONIC LIPID” (Kyowa Hakko Kirin Co., Ltd., priority 2011, published 2017).

Assay: Average particle diameter of preparation (Zetasizer Nano ZS)
Type: physicochemical
Settings: average particle diameter of cationic lipid/nucleic acid complex; Example 118 preparation: compound/PEG-DMPE Na/DSPC/cholesterol with apo-b siRNA
How it was run: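 Lipid nanoparticles formed by mixing cationic lipid/PEG-DMPE Na/DSPC/cholesterol (8.947/1.059/5.708/13.697 mmol/L in 90% ethanol, 37 °C) with apo-b siRNA in Tris-EDTA/citrate buffer pH 5.0, then diluted with citrate/NaCl pH 6.0 and DPBS to 10 μM siRNA. Mean complex diameter measured by dynamic light scattering.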

Row | SMILES | Particle diameter of Preparetion [nm]
1 | CCCCCCCCCCCCCCCCO[C@@H]1CN(C)C[C@H]1OCCCCCCCCCCCCCCCC [Compound 45, (3R,4R)-3,4-bis(Hexadecyloxy)-1-methylpyrrolidine] | 136.3
2 | CCCCCCCCCCCCCCCCCCO[C@@H]1CN(C)C[C@H]1OCCCCCCCCCCCCCCCCCC [Compound 46, (3R,4R)-1-Methyl-3,4-bis(octadecyloxy)pyrrolidine] | 192.0
3 | CCCC/C=C\CCCCCCCCO[C@@H]1CN(C)C[C@H]1OCCCCCCCC/C=C\CCCC [Compound 47, (3R,4R)-1-Methyl-3,4-bis((Z)-tetradec-9-enyloxy)pyrrolidine] | 125.8
4 | CCCCCC/C=C\CCCCCCCCCCO[C@@H]1CN(C)C[C@H]1OCCCCCCCCCC/C=C\CCCCCC [Compound 48, (3R,4R)-1-Methyl-3,4-bis((Z)-octadec-11-enyloxy)pyrrolidine] | 135.0
5 | CCCCCCCC/C=C\CCCCCCCCCCO[C@@H]1CN(C)C[C@H]1OCCCCCCCCCC/C=C\CCCCCCCC [Compound 49, (3R,4R)-3,4-bis((Z)-Icos-11-enyloxy)-1-methylpyrrolidine] | 141.7
6 | CCCCC/C=C\C/C=C\CCCCCCCCO[C@H]1C[N+](C)(C)C[C@@H]1OCCCCCCCC/C=C\C/C=C\CCCCC [Compound 52, (3S,4S)-1,1-Dimethyl-3,4-bis((9Z,12Z)-octadec-9,12-dienyloxy)pyrrolidinium chloride] | 118.9
7 | CCCCC/C=C\C/C=C\CCCCCCCC(=O)O[C@@H]1CN(CC(O)CO)C[C@H]1OC(=O)CCCCCCC/C=C\C/C=C\CCCCC (stereo partly drawn) [Compound 53, (3R,4R)-1-(2,3-dihydroxypropyl)pyrrolidine-3,4-diyl di((9Z,12Z)-octadec-9,12-enoate)] | 152.4
8 | CCCCC/C=C\C/C=C\CCCCCCCCO[C@@H]1CN(CC(C)O)C[C@H]1OCCCCCCCC/C=C\C/C=C\CCCCC (stereo partly drawn) [Compound 54, 1-((3R,4R)-3,4-bis((9Z,12Z)-Octadec-9,12-dienyloxy)pyrrolidine-1-yl)propan-2-ol] | 148.9
9 | CCCCC/C=C\C/C=C\CCCCCCCCO[C@@H]1CN(CC(O)COC)C[C@H]1OCCCCCCCC/C=C\C/C=C\CCCCC (stereo partly drawn) [Compound 55, 1-(3R,4R)-3,4-bis(((9Z,12Z)-Octadec-9,12-dienyloxy)pyrrolidine-1-yl)-3-methoxypropan-2-ol] | 139.6
10 | CCCCC/C=C\C/C=C\CCCCCCCCO[C@@H]1CN(CCCO)C[C@H]1OCCCCCCCC/C=C\C/C=C\CCCCC [Compound 56, 3-((3R,4R)-3,4-bis((9Z,12Z)-Octadec-9,12-dienyloxy)pyrrolidin-1-yl)propan-1-ol] | 120.3
11 | CCCCC/C=C\C/C=C\CCCCCCCCO[C@@H]1CN(CCC(N)=O)C[C@H]1OCCCCCCCC/C=C\C/C=C\CCCCC [Compound 57, 3-((3R,4R)-3,4-bis((9Z,12Z)-Octadec-9,12-dienyloxy)pyrrolidin-1-yl)propanamide] | 159.2
12 | CCCCC/C=C\C/C=C\CCCCCCCCO[C@@H]1CN(CCC(=O)N(C)C)C[C@H]1OCCCCCCCC/C=C\C/C=C\CCCCC [Compound 58, 3-((3R,4R)-3,4-bis((9Z,12Z)-Octadec-9,12-dienyloxy)pyrrolidin-1-yl)-N,N-dimethylpropanamide] | 151.8
13 | CCCCC/C=C\C/C=C\CCCCCCCCO[C@@H]1CN(CCCN(C)C)C[C@H]1OCCCCCCCC/C=C\C/C=C\CCCCC [Compound 59, (3R,4R)-1-(3-N,N-Dimethylaminopropyl)-3,4-bis((9Z,12Z)-octadec-9,12-dienyloxy)pyrrolidine] | 116.7
14 | CCCCC/C=C\C/C=C\CCCCCCCCO[C@@H]1CN(C2CCN(C)CC2)C[C@H]1OCCCCCCCC/C=C\C/C=C\CCCCC [Compound 60, 4-((3R,4R)-3,4-bis((9Z,12Z)-Octadec-9,12-dienyloxy)pyrrolidin-1-yl)-1-methylpiperidine] | 125.3
15 | CCCCC/C=C\C/C=C\CCCCCCCCO[C@@H]1CN(C(=O)CN)C[C@H]1OCCCCCCCC/C=C\C/C=C\CCCCC [Compound 61, (3R,4R)-1-(2-Aminoacetyl)-3,4-bis((9Z,12Z)-octadec-9,12-dienyloxy)pyrrolidine] | 125.9
16 | CCCCC/C=C\C/C=C\CCCCCCCCO[C@@H]1CN(C(=O)CCN)C[C@H]1OCCCCCCCC/C=C\C/C=C\CCCCC [Compound 62, (3R,4R)-1-(3-Aminopropanoyl)-3,4-bis((9Z,12Z)-octadec-9,12-dienyloxy)pyrrolidine] | 151.3
17 | CCCCC/C=C\C/C=C\CCCCCCCCO[C@@H]1CN(C(=O)[C@@H](N)CCCN)C[C@H]1OCCCCCCCC/C=C\C/C=C\CCCCC [Compound 63, (3R,4R)-1-((S)-2,5-Diaminopentanoyl)-3,4-bis((9Z,12Z)-octadec-9,12-dienyloxy)pyrrolidine] | 143.0
18 | CCCCC/C=C\C/C=C\CCCCCCCCO[C@@H]1CN(C(=O)CCCCCN)C[C@H]1OCCCCCCCC/C=C\C/C=C\CCCCC [Compound 64, (3R,4R)-1-(6-Aminohexanoyl)-3,4-bis((9Z,12Z)-octadec-9,12-dienyloxy)pyrrolidine] | 146.0
19 | CCCCC/C=C\C/C=C\CCCCCCCC(=O)O[C@@H]1CN(C(=O)CN)C[C@H]1OC(=O)CCCCCCC/C=C\C/C=C\CCCCC [Compound 65, (3R,4R)-1-(2-aminoacetyl)pyrrolidine-3,4-diyl di((9Z,12Z)-octadec-9,12-enoate)] | 128.9
20 | CCCCC/C=C\C/C=C\CCCCCCCC(=O)O[C@@H]1CN(C(=O)[C@@H](N)CCCCN)C[C@H]1OC(=O)CCCCCCC/C=C\C/C=C\CCCCC [Compound 66, (3R,4R)-1-((S)-2,6-Diaminohexanoyl)pyrrolidine-3,4-diyl di((9Z,12Z)-octadec-9,12-enoate)] | 137.4
21 | CCCCCCCC/C=C\CCCCCCCCOCCNCCOCCCCCCCC/C=C\CCCCCCCC [Compound 67, bis(2-((Z)-Octadec-9-enyloxy)ethyl)amine] | 127.6
22 | CCCC/C=C\CCCCCCCCOCCNCCOCCCCCCCC/C=C\CCCC [Compound 68, bis(2-((Z)-Tetradec-9-enyloxy)ethyl)amine] | 132.4
23 | CCCCCCCCCCCCCCOCCNCCOCCCCCCCCCCCCCC [Compound 69, bis(2-(Tetradecyloxy)ethyl)amine] | 136.8
24 | CCCCCCCCCCCCCCCCOCCNCCOCCCCCCCCCCCCCCCC [Compound 70, bis(2-(Hexadecyloxy)ethyl)amine] | 145.6
25 | CCCCCCCCCCCCCCCCCCOCCNCCOCCCCCCCCCCCCCCCCCC [Compound 71, bis(2-(Octadecyloxy)ethyl)amine] | 148.4
26 | CCCCCC/C=C\CCCCCCCCOCCNCCOCCCCCCCC/C=C\CCCCCC [Compound 72, bis(2-((Z)-Hexadec-9-enyloxy)ethyl)amine] | 130.6
